In US5944026A, “Tobacco products or materials resembling tobacco products containing natural substances having an antioxidative effect and processes for the preparation thereof” (priority 1994, dated 1999):
Read-outs that look alike come from different tables or passages of the source.

Key:
[1] = Solubility/miscibility of aromatic substances, vitamins A and E and β-carotene in natural substances used as solvents; format: physicochemical
[2] = Solubility of aromatic substances and the vitamins A and E in filter hardeners; conditions: for solubility in hardener TEGDA: hardener: TEGDA (triethylene glycol diacetate)
[3] = system: Salmonella typhimurium, strain TA 98; assay: Ames test (TA98): antimutagenic effect of added substances on mutagenicity of cigarette smoke condensate; format: cell-based; conditions: graphical representation in figure
Description: To detect this antimutagenic action, the Ames test (loc.cit.) was carried out as a meaningful rapid test.
It was ensured in this process that work was carried out in a concentration range which was not toxic for the bacteria.

[4] = system: Salmonella typhimurium, strain TA 98; assay: Ames test with S9 activation: smoke condensate of experimental cigarettes with cloves, cinnamon sticks or eugenol; format: cell-based; conditions: additions to cut tobacco
Description: Five versions of filter cigarettes which differ in the composition of the final mixture according to Table 6 and have the same tobacco base mixture were prepared in the same format and same cigarette weight (940 mg). The cloves or cinnamon sticks employed were moistened with steam, rolled and cut before mixing with tobacco.
The experimental cigarettes were smoked under standard conditions (see Example 1).

Compound	solubility in cinnamaldehyde as a solvent ([1]; solvent: cinnamaldehyde) [% by weight]	solubility in eugenol as a solvent [1] [% by weight]	solubility in jasminealdehyde as a solvent ([1]; solvent: jasminealdehyde) [% by weight]	solubility in hardener triacetin [2] [% by weight]	mutagenicity of cigarette smoke condensate on addition of the substance [3]	also measured
Cc1ccc2oc(=O)ccc2c1 [6-Methylcoumarin]	–	–	–	–	–	solubility in cinnamaldehyde as a solvent [1]: > 10 % by weight; solubility in jasminealdehyde as a solvent [1]: > 10 % by weight
CCOc1cc(C=O)ccc1O [Ethylvanillin]	> 10	> 10	> 10	> 10	–	solubility in vitamin E acetate as a solvent [1]: < 1 % by weight; solubility in hardener TEGDA [2]: > 10 % by weight; solubility in hardener eugenol [2]: > 10 % by weight
O=C(O)/C=C/c1ccc(O)c(O)c1 [caffeic acid, Caffeic acid]	–	–	–	–	reduction of the mutagenicity	–
CC1=C(/C=C/C(C)=C/C=C/C(C)=C/C=C/C=C(C)/C=C/C=C(C)/C=C/C2=C(C)CCCC2(C)C)C(C)(C)CCC1 [β-carotene]	> 1	< 1	< 1	–	–	solubility in vitamin E acetate as a solvent [1]: < 1 % by weight
COc1cc(/C=C/C(=O)CC(=O)/C=C/c2ccc(O)c(OC)c2)ccc1O [curcumin, Curcumin]	–	–	–	–	reduction of the mutagenicity	–
Cc1c(C)c2c(c(C)c1O)CCC(C)(CCCC(C)CCCC(C)CCCC(C)C)O2 (stereo not drawn) [Vitamin E, α-tocopherol]	–	–	–	> 10	–	–
COc1cc2ccc(=O)oc2cc1O [scopoletin, 7-hydroxy-6-methoxycoumarin]	–	–	–	–	reduction of the mutagenicity	–
Cc1c(C)c2c(c(C)c1OC(=O)CCC(=O)O)CC[C@@](C)(CCC[C@H](C)CCC[C@H](C)CCCC(C)C)O2 [Vitamin E succinate, tocopherol succinate]	> 10	> 10	> 10	< 1	–	solubility in hardener TEGDA [2]: < 1 % by weight; solubility in hardener eugenol [2]: 10 % by weight
CC1=C(/C=C/C(C)=C/C=C/C(C)=C/CO)C(C)(C)CCC1 [Vitamin A, retinol]	–	–	–	–	–	solubility in cinnamaldehyde as a solvent [1]: > 10 % by weight; solubility in jasminealdehyde as a solvent [1]: > 10 % by weight
C=CCc1ccc(O)c(OC)c1 [eugenol, Eugenol]	–	–	–	–	reduction of the mutagenicity	mutagenic effect of the smoke condensate (in words) [4]: decrease the mutagenic effect of the smoke condensate
